Measurements taken from patent US20250074891A1 (Anaxis Pharma Pty Ltd., priority 2021, published 2025).

How the values were obtained:
[1] = biological target: MLKL (full length) (Homo sapiens (Human), UniProt Q8NB16); assay: KINOMEscan binding assay, MLKL (full length); settings: Table 36
Protocol: Kinase assays. For most assays, kinase-tagged T7 phage strains were grown in parallel in 24-well blocks in an E. coli host derived from the BL21 strain. E. coli were grown to log-phase and infected with T7 phage from a frozen stock (multiplicity of infection=0.4) and incubated with shaking at 32° C. until lysis (90-150 minutes).
The Hill Slope was set to −1.

[2] = test system: U937 human histiocytic leukemia cell line; assay: Cellular assay: inhibition of TSQ induced necroptosis (CellTitre-Glo); settings: Homo sapiens, U-937; U937 cells, TSQ cocktail, 48 hours, Table 38; read-out: Inhibition of TSQ-induced necroptosis (IC50 cell-based assay)
Protocol: […] ASSAY: Screening compounds for inhibition of TSQ induced necroptosis, 384 well plate format.
Cell Line ID: U937 human histiocytic leukemia cell line.
Cell Concentration (cells/well): Final cell density is 20,000 cells per well.
Cell growth medium: HT-RPMI medium+7.4% Fetal Bovine Serum (FBS). Cells are cultured in Corning 150 cm^z tissue culture flasks with vented caps at 37° C./5% CO2.
Incubation: Plates were incubated at 37° C./5% CO2 in a humidified incubator for 48 hours following addition of compounds and death stimuli (TSQ cocktail).
Compound concentration: 36 μM starting concentration, 1:3 dilution, 10 point
DMSO final concentration (% v/v): 0.3%.
Compounds in TSQ cocktail (T: TNF; S: Smac mimetic; Q: Q-VD-OPh) and their final concentrations: • hTNF-Fc (100 ng/ml)—produced by standard procedures as shown in Bossen et al., J Biol Chem, 2006, 281(20), 13964-13971. • Compound A (500 nM)—Smac mimetic, Tetralogic and SYNthesis med chem • Q-VD-OPh (10 μM)—MP Biomedicals
The cellular assay was carried out according to the following steps: • 1. Each well was prepared by sequential addition of: • a. DMSO (control; columns 1-2 and 23-24) or compound in DMSO—addition was performed using acoustic transfer of nl volumes of stock compound to give final test concentrations of 36, 12, 4, 1.3, 0.44, 0.148, 0.049, 0.016, 0.005 and 0.002 μM. All wells were backfilled with DMSO to a final total volume in the well of 100 nl. • b. Following compound/DMSO addition in step (a), 40 μL of cell suspension (5×10^5 cells/mL) was added to provide a final cell concentration of 20,000 cells per well, and • c. Following cell addition in step (b), 10 μL of 5×TSQ cocktail (except to positive controls; […]) was added to each well. • 2. After 48 hours, plate was removed from the 37° C. incubator and equilibrated to room temperature for 45 minutes. • 3. 15 μL of room temperature CellTitre-Glo2™ (Promega™) was added to each well. • 4. Shook plates for 2 minutes (˜600 rpm) and incubated at room temperature for 15 minutes to allow signal to stabilise. • 5. Read luminescence readout on a plate reader.
Percent viability was calculated for each compound according to equation (2):
[formula] • wherein • RawData is the readout of any cell containing a compound of the invention • TA is the total activity provided by the luminescence readout from DMSO only wells (columns 2 and 24)=100% viability • NSA is the non-specific activity provided by DMSO+TSQ wells (columns 1 and 23)=0% viability
Curve fitting: 10-point titration curves are fitted with the 4-parameter logistic nonlinear regression model and the IC50 reported is the inflection point of the curve.
Analysis: Data was loaded into Dotmatics™ and visualised using the Tibco® Spotfire™ software. 10 points titration curves were fitted with the 4-parameter logistic nonlinear regression model and the IC50 reported reflect the inflection point of the curve for curve fitting.
Assay involving the TSQ cocktail (T: TNF; S: Smac mimetic; Q: Q-VD-OPh): TSQ treatment ensures that cells specifically undergo necroptotic cell death. TNF activates the TNF receptor, Smac mimetic directs the signal away from proinflammatory signaling and toward the RIP1/RIP3-mediated cell death pathways, and Q-VD-OPh ensures that the apoptotic response is blocked leaving only the programmed necrosis response. The compounds' activity (solution in DMSO) tested in this TSQ-induced assay was evaluated by determining the number of viable cells in culture by measuring the amount of ATP present as measured by CelltiterGlo.

[3] = test system: U937 cells; assay: Counter screen: cell viability without TSQ cocktail (off-target effect); parameters: species or system human; settings: Homo sapiens, U-937, Table 38, read-out: Off-target effect (IC50 cell-based assay)
Protocol: Counter screen: In parallel, all compounds were tested for their ability to affect cell viability. The same U937 cells were treated with compound in DMSO without the TSQ cocktail. This counter screen enabled evaluation of off-target effects. In this case, cell viability was measured by CelltiterGlo.

Chain of MLKL (full length) (Q8NB16 whole entry): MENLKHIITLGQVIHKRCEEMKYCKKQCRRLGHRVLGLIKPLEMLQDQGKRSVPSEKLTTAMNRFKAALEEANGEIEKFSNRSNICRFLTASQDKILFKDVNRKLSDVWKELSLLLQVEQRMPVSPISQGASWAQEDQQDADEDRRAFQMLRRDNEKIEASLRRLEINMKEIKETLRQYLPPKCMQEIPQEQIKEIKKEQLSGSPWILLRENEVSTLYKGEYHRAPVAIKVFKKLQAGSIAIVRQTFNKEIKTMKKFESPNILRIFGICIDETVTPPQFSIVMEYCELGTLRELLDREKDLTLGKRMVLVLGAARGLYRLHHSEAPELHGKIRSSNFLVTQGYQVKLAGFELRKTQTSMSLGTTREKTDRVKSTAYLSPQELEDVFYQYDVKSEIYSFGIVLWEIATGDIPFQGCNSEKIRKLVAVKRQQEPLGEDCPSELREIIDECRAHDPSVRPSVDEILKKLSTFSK

| Compound | Kd [1] [nM] | IC50 [2] [µM] | IC50 [3] [µM] |
| --- | --- | --- | --- |
| Cc1ncsc1-c1ccc(CNC(=O)[C@@H]2C[C@@H](O)CN2C(=O)[C@@H](NC(=O)COCCOCCn2ccc(Nc3[nH]nc(-c4ccc(NS(=O)(=O)C(F)F)c(O[C@@H](C)c5ccc(F)cc5)c4)c3C(N)=O)n2)C(C)(C)C)cc1 [Compound 1037, 3-[4-(difluoromethanesulfonamido)-3-[(1S)-1-(4-fluorophenyl)ethoxy]phenyl]-5-[(1-{2-[2-({[(2S)-1-[(2S,4R)-4-hydroxy-2-({[4-(4-methyl-1,3-thiazol-5-yl)phenyl]methyl}carbamoyl)pyrrolidin-1-yl]-3,3-dimethyl-1-oxobutan-2-yl]carbamoyl}methoxy)ethoxy]ethyl}-1H-pyrazol-3-yl)amino]-1H-pyrazole-4-carboxamide] | < 10 | < 1 | > 10 |
| CCS(=O)(=O)Nc1ccc(-c2n[nH]c(Nc3ccnc(OCCOCC(=O)N[C@H](C(=O)N4C[C@H](O)C[C@H]4C(=O)NCc4ccc(-c5scnc5C)cc4)C(C)(C)C)c3)c2C(N)=O)cc1 [Compound 1010, 3-(4-ethanesulfonamidophenyl)-5-({2-[2-({[(2S)-1-[(2S,4R)-4-hydroxy-2-({[4-(4-methyl-1,3-thiazol-5-yl)phenyl]methyl}carbamoyl)pyrrolidin-1-yl]-3,3-dimethyl-1-oxobutan-2-yl]carbamoyl}methoxy)ethoxy]pyridin-4-yl}amino)-1H-pyrazole-4-carboxamide] | 10 to 1000 | > 10 | > 10 |
| CCS(=O)(=O)Nc1ccc(-c2n[nH]c(Nc3ccnc(OCCOCCOCCOCCOCCOCC(=O)N[C@H](C(=O)N4C[C@H](O)C[C@H]4C(=O)NCc4ccc(-c5scnc5C)cc4)C(C)(C)C)c3)c2C(N)=O)cc1 [Compound 1008, 3-(4-ethanesulfonamidophenyl)-5-({2-[(1-{[(2S)-1-[(2S,4R)-4-hydroxy-2-({[4-(4-methyl-1,3-thiazol-5-yl)phenyl]methyl}carbamoyl)pyrrolidin-1-yl]-3,3-dimethyl-1-oxobutan-2-yl]carbamoyl}-2,5,8,11,14-pentaoxahexadecan-16-yl)oxy]pyridin-4-yl}amino)-1H-pyrazole-4-carboxamide] | < 10 | > 10 | > 10 |
| CCS(=O)(=O)Nc1ccc(-c2n[nH]c(Nc3cnc(OCCCCC(=O)N[C@H](C(=O)N4C[C@H](O)C[C@H]4C(=O)NCc4ccc(-c5scnc5C)cc4)C(C)(C)C)cn3)c2C(N)=O)cc1 [Compound 1022, 3-(4-ethanesulfonamidophenyl)-5-{[5-(4-{[(2S)-1-[(2S,4R)-4-hydroxy-2-({[4-(4-methyl-1,3-thiazol-5-yl)phenyl]methyl}carbamoyl)pyrrolidin-1-yl]-3,3-dimethyl-1-oxobutan-2-yl]carbamoyl}butoxy)pyrazin-2-yl]amino}-1H-pyrazole-4-carboxamide] | < 10 | < 1 | > 10 |
| CCS(=O)(=O)Nc1ccc(-c2n[nH]c(Nc3ccc(C(=O)OCCOCC(=O)N[C@H](C(=O)N4C[C@H](O)C[C@H]4C(=O)NCc4ccc(-c5scnc5C)cc4)C(C)(C)C)cn3)c2C(N)=O)cc1O[C@@H](C)c1ccc(F)cc1 [Compound 1046, 2-({[(2S)-1-[(2S,4R)-4-hydroxy-2-({[4-(4-methyl-1,3-thiazol-5-yl)phenyl]methyl}carbamoyl)pyrrolidine-1-yl]-3,3-dimethyl-1-oxobutan-2-yl]carbamoyl}methoxy)ethyl 6-[(4-carbamoyl-3-{4-ethanesulfonamido-3-[(1S)-1-(4-fluorophenyl)ethoxy]phenyl}-1H-pyrazol-5-yl)amino]pyridine-3-carboxylate] | 10 to 1000 | < 1 | > 10 |
| Cc1ncsc1-c1ccc(CNC(=O)[C@@H]2C[C@@H](O)CN2C(=O)[C@@H](NC(=O)COCCn2ccc(Nc3[nH]nc(-c4ccc(NS(=O)(=O)C(F)F)c(O[C@@H](C)c5ccc(F)cc5)c4)c3C(N)=O)n2)C(C)(C)C)cc1 [Compound 1036, 3-[4-(difluoromethanesulfonamido)-3-[(1S)-1-(4-fluorophenyl)ethoxy]phenyl]-5-({1-[2-({[(2S)-1-[(2S,4R)-4-hydroxy-2-({[4-(4-methyl-1,3-thiazol-5-yl)phenyl]methyl}carbamoyl)pyrrolidin-1-yl]-3,3-dimethyl-1-oxobutan-2-yl]carbamoyl}methoxy)ethyl]-1H-pyrazol-3-yl}amino)-1H-pyrazole-4-carboxamide] | < 10 | 1 to 10 | > 10 |
| CCS(=O)(=O)Nc1ccc(-c2n[nH]c(Nc3ccnc(OCCCCCCCCCCCCCC(=O)N[C@H](C(=O)N4C[C@H](O)C[C@H]4C(=O)NCc4ccc(-c5scnc5C)cc4)C(C)(C)C)c3)c2C(N)=O)cc1 [Compound 1018, 3-(4-ethanesulfonamidophenyl)-5-({2-[(13-{[(2S)-1-[(2S,4R)-4-hydroxy-2-({[4-(4-methyl-1,3-thiazol-5-yl)phenyl]methyl}carbamoyl)pyrrolidin-1-yl]-3,3-dimethyl-1-oxobutan-2-yl]carbamoyl}tridecyl)oxy]pyridin-4-yl}amino)-1H-pyrazole-4-carboxamide] | 10 to 1000 | > 10 | > 10 |
| Cc1ncsc1-c1ccc(CNC(=O)[C@@H]2C[C@@H](O)CN2C(=O)[C@@H](NC(=O)COCCOc2cc(Nc3[nH]nc(-c4ccc(NS(=O)(=O)CC(F)(F)F)cc4)c3C(N)=O)ccn2)C(C)(C)C)cc1 [Compound 1011, 5-({2-[2-({[(2S)-1-[(2S,4R)-4-hydroxy-2-({[4-(4-methyl-1,3-thiazol-5-yl)phenyl]methyl}carbamoyl)pyrrolidin-1-yl]-3,3-dimethyl-1-oxobutan-2-yl]carbamoyl}methoxy)ethoxy]pyridin-4-yl}amino)-3-[4-(2,2,2-trifluoroethanesulfonamido)phenyl]-1H-pyrazole-4-carboxamide] | < 10 | > 10 | > 10 |
| Cc1ncsc1-c1ccc(CNC(=O)[C@@H]2C[C@@H](O)CN2C(=O)[C@@H](NC(=O)COCCOc2cc(Nc3[nH]nc(-c4ccc(NS(=O)(=O)C(F)F)cc4)c3C(N)=O)ccn2)C(C)(C)C)cc1 [Compound 1012, 3-[4-(difluoromethanesulfonamido)phenyl]-5-({2-[2-({[(2S)-1-[(2S,4R)-4-hydroxy-2-({[4-(4-methyl-1,3-thiazol-5-yl)phenyl]methyl}carbamoyl)pyrrolidin-1-yl]-3,3-dimethyl-1-oxobutan-2-yl]carbamoyl}methoxy)ethoxy]pyridin-4-yl}amino)-1H-pyrazole-4-carboxamide] | < 10 | > 10 | > 10 |
| Cc1ncsc1-c1ccc(CNC(=O)[C@@H]2C[C@@H](O)CN2C(=O)[C@@H](NC(=O)CCCCOc2cc(Nc3[nH]nc(-c4ccc(NS(=O)(=O)C(F)F)cc4)c3C(N)=O)ccn2)C(C)(C)C)cc1 [Compound 1017, 3-[4-(difluoromethanesulfonamido)phenyl]-5-{[2-(4-{[(2S)-1-[(2S,4R)-4-hydroxy-2-({[4-(4-methyl-1,3-thiazol-5-yl)phenyl]methyl}carbamoyl)pyrrolidin-1-yl]-3,3-dimethyl-1-oxobutan-2-yl]carbamoyl}butoxy)pyridin-4-yl]amino}-1H-pyrazole-4-carboxamide] | < 10 | 1 to 10 | > 10 |
